# Results published in article PMC8466962, “Isolation and Biological Characterization of Homoisoflavanoids and the Alkylamide N-p-Coumaroyltyramine from Crinum biflorum Rottb., an Amaryllidaceae Species Collected in Senegal” (Biomolecules, 2021).
# Tests used:
# [1] = system: α-glucosidase; assay: α-glucosidase inhibitor assay (colorimetric kit); format: biochemical
# Method: (§1) α-glucosidase and α-amylase inhibitor screening kits (colorimetric) were purchased from Biovision (Milpitas, CA, USA). In total, 10 mM of stock solution of all the tested compounds were dissolved in DMSO and serially diluted in the assay buffer of each kit. Experiments were performed according to the manufacturer’s protocol. Briefly, for the α-glucosidase assay, 10 µL of serially diluted compounds at the corresponding concentration ([…]–1 mM) were added into designated wells of clear 96 well-plates. Subsequently, 10 µL of the α-glycosidase enzyme was added to each well and volume was adjusted to 80 µL and plates were incubated for 15-min at room temperature in dark condition. Then, 20 µL of α-glycosidase substrate mixture was added in all wells and kinetic of reaction was measured at OD: 410 nm for 60 min at 2 min intervals by using a multiplate reader, Biotek instrument, Inc., Canada. Enzyme control (no inhibitor), background control (no enzyme), solvent control (DMSO) and inhibitor control (acarbose) were included in the plates. For the α-amylase assay, 50 µL of serially diluted compounds (3.25 µM to 500 µM) were added into a clear 96-well plate with 50 µL of assay buffer and 50 µL of α-amylase enzymes. The plate was incubated at room temperature in the dark for 10 min. Then 50 µL of the α-amylase substrate was added in all wells. The kinetic of reaction was measured at OD:410 nm for 26 min at intervals of 2 min by using a multiplate reader. Control α-amylase inhibitor was provided by the manufacturer, enzyme control, background control and solvent control were all included. Enzyme inhibition was calculated according to Zhang et al. (2014). In summary, ODs were plotted according to the time for each sample. Areas under the curve (AUC) were calculated, and enzyme inhibition was measured as 100−(AUCcompound/AUCenzyme) × 100 for each dilution of each compound.
# [2] = in vitro; details: human; for IC50 at 24 h: HeLa cervical cancer cells
# From the text: (§2) HeLa cervical cancer cells (CCL-2) and A431 (ATCC-CRL1555) human epidermoid carcinoma cells were from American Type Culture Co [...
# [3] = in vitro; details: human, A431 epidermoid carcinoma cells
# From the text: as §2
# [4] = in vitro; details: human, HaCaT immortalized keratinocytes
# From the text: as §2
# [5] = system: acetylcholinesterase (AChE); assay: Anti-acetylcholinesterase assay (Ellman); format: biochemical
# Method: In vitro acetylcholinesterase (AChE) activity was assessed exactly as in Ka et al. (2020) following Ellman’s colorimetric protocol with the Acetylcholinesterase Assay Kit (Abcam Inc., Boston, MA, USA). Briefly, 50 µL serial dilutions (3.9–500 µM) of compounds 1–5 were prepared in Tris-HCl pH = 7.9 buffer into designated wells of a clear 96 well-plate. A total of 5 µL of DTNB was added in each well, then 50 µL of diluted acetycholinesterase was added. The plate was incubated for 10 min in the dark. Matched concentrations of DMSO were used as a negative control. Kinetic of reaction was measured in a multiple plate reader at 410 nm in kinetic mode for 40 min at room temperature. The percentage of anti-AChE inhibition was calculated according to the following formula: 100 − [((E − S)/E) × 100], where E is the activity of the enzyme with matched concentrations of DMSO and S is the activity of the enzyme with the test sample.
# [6] = system: THP-1 cells; assay: Propidium iodide cytotoxicity in THP-1 cells; details: 72 h; for PI+ cells: 100 μM; for Dead cells: all concentrations tested (12.5-100 μM)
# [7] = system: VSV-G pseudotyped HIV-1GFP; assay: VSV-G pseudotyped HIV-1GFP infectivity assay in THP-1 cells; format: cell-based; details: for Infection (mean % HIV-1GFP+ cells): 100 μM, THP-1, MOI 1, 72 h, DMSO 8.16%; for Fold decrease in infection: 50 μM, THP-1, 72 h; for Infection levels at lower concentrations: below 50 μM (12.5, 25 μM)
# [8] = system: HaCaT, HeLa and A431 cells; assay: γ-H2AX foci immunofluorescence (DNA damage); format: cell-based, human; details: 10 μM, 24 h, all tested cell lines
# Method: Cells were seeded in 35 mm dishes on micro cover glasses (BDH) and treated with the metabolite at a concentration of 10 μM. […] Cells were permeabilized with ice-cold 0.5% Triton X-100 for 5 min and then washed with PBS. Cells were then incubated with phospho-histone H2A.X (Ser139) antibody (from Cell Signaling Technologies 9542, Boston, MA, USA) for 1 h, followed by DAPI (Sigma-Aldrich) for 3 min and washed with PBS/0.05% Tween. Coverslip was mounted with Ibidi mounting medium (Ibidi GmbH, Martinsried, Germany). Images were taken with a Zeiss confocal laser-scanning microscope Axio Observer (Zeiss, Ostfilden, Germany) (scale bar, 20 μm). A 40× objective was used and image analysis was performed using Fiji ImageJ open source software project (https://imagej.net/imaging/). All the images were taken with the same setting.
# [9] = system: ovarian carcinoma, melanoma and non-small lung cancer cells; set-up: method as in PMID 23659371; details: cited from earlier work
# [10] = system: HaCaT immortalized keratinocytes; details: for Effect on HaCaT cell viability: incubation extended for 48 h, 0.5 to 10 μM
# From the text: as §2
# [11] = system: HaCaT cells; assay: DCFDA assay (ROS); format: cell-based, human; details: for Production of reactive oxygen species (ROS): 10 µM, HaCaT cells
# Method: N-p-coumaroyltyramine antioxidant activity was measured using 2′−7′dichlorofluorescein diacetate (DCFDA), a non-fluorescent compound permeable to the cell membrane, which can be oxidized by reactive oxygen species (ROS) giving a fluorescent compound. […] The medium was removed after 4 h and 1 mM (3%) H2O2 was added for 45 min, 1.5 and 2.0 h. Cells were washed with PBS and a fresh medium with DCFDA ([…]) was added for 45 min, then DCFDA was removed by washing in PBS and the cells were harvested. The measurement of ROS was obtained using the Sinergy H4 microplate reader (Gen5 2.07, Thermofisher, Waltham MA, USA). The fluorescence emitted from the cells treated with DCFDA was compared to the untreated cells. Trolox was used as a positive control. Values shown in the plot are mean ± SD of sixfold determinations. The mean and the standard deviation were calculated on biological triplicates using GraphPad Prism 8.0.2 software (GraphPad, San Diego, CA, USA).
# [12] = system: HeLa cervical cancer cells; details: 0.5 to 10 μM, 24 and 48 h
# From the text: as §2
# [13] = target: α-amylase; assay: α-amylase inhibitor assay (colorimetric kit); format: biochemical; details: concentrations 3.9-250 μM, 26 min kinetics
# Method: as §1, with “For the α-amylase assay, 50 µL of serially diluted compounds (3.25 µM to 500 µM) were added into a clear 96-well plate with 50 µL of assay buffer and 50 µL of α-amylase enzymes. The plate was incubated at room temperature in the dark for 10 min. Then 50 µL of the α-amylase substrate was added in all wells.” left out, “Control α-amylase inhibitor was provided by the manufacturer, enzyme control, background control and solvent control were all included.” left out, “In summary, ODs were plotted according to the time for each sample.” left out
# [14] = system: A431 human epidermoid carcinoma cells; details: 0.5 to 10 μM, 24 and 48 h
# From the text: as §2
# [15] = system: human immunodeficiency virus type 1 (HIV-1); set-up: method as in PMID 34152811; details: cited from earlier work
# [16] = system: Dengue virus (DENV); set-up: method as in PMID 34152811; details: read-out: DENV replication EC50; cited from earlier work
# [17] = system: Zika virus (ZIKV); set-up: method as in PMID 34152811; details: read-out: ZIKV replication EC50; cited from earlier work
# [18] = increasing inhibition from 15.6 μM to 250 μM
Structure (SMILES),α-glucosidase inhibition ([1]; 1 mM),IC50 at 24 h [2],IC50 at 24 h [3],IC50 at 24 h [4],"AChE inhibition [5, 18]",PI+ cells [6],Infection (mean % HIV-1GFP+ cells) [7],Nuclear γH2AX foci [8],Effect on HaCaT cell viability [10],Dead cells [6],Fold decrease in infection [7],Infection levels at lower concentrations [7],Production of reactive oxygen species (ROS) [11],also measured
"COc1cc2c(c(OC)c1OC)C(=O)C(Cc1ccc(O)cc1)CO2 (centres unmarked) [Compound 1, 5,6,7-trimethoxy-3-(4-hydroxybenzyl)chroman-4-one]",50%,1 µM,6 µM,> 10 µM,up to 20%,8.74%,3.78%,–,–,–,–,–,–,"viability at 48 h, 5 µM ([2]; HeLa cervical cancer cells (CCL-2)): < 20%"
"COc1cc2c(c(OC)c1OC)C(=O)C(O)(Cc1ccc(O)cc1)CO2 (centres unmarked) [Compound 2, 3-hydroxy-5,6,7-trimethoxy-3-(4-hydroxybenzyl)chroman-4-one]",50%,4 µM,> 10 µM,> 10 µM,up to 20%,4.15%,4.03%,–,–,–,–,–,–,–
"COc1ccc(CC2(O)COc3cc(OC)c(OC)c(OC)c3C2=O)cc1 (centres unmarked) [Compound 3, 3-hydroxy-5,6,7-trimethoxy-3-(4-methoxybenzyl)chroman-4-one]",50%,4.5 µM,4 µM,> 10 µM,–,–,2.51%,remarkable increase,significant reduction,30–40%,2.0 fold,decreased infection levels,did not increase,Antiproliferative activity [9]: submicromolar concentration; AChE enzyme activity blocked ([5]; concentrations increased from 3.9 to 500 μM): 15–30%
"COc1ccc(CC2COc3cc(OC)c(OC)c(OC)c3C2=O)cc1 (centres unmarked) [Compound 4, 5,6,7-trimethoxy-3-(4-methoxybenzyl)chroman-4-one]",–,5.5 µM,6.5 µM,> 10 µM,up to 20%,–,2.76%,remarkable increase,significant reduction,30–40%,2.4 fold,decreased infection levels,did not increase,–
"O=C(/C=C/c1ccc(O)cc1)NCCc1ccc(O)cc1 [Compound 5, (E)-N-(4-hydroxyphenethyl)-3-(4-hydroxyphenyl)acrylamide]",–,–,–,–,–,5.97%,2.12%,–,–,–,1.6 fold,–,–,"α-glucosidase inhibition ([1]; all concentrations tested, 0.01-1000 μM): nearly completely inhibited; Toxicity on HeLa cancer cells [12]: toxic; IC50 [13]: 40 µM; Toxicity on A431 cancer cells [14]: toxic; AChE inhibition ([5]; high concentrations): weakly inhibited; Effect on HaCaT cell viability at the lower concentrations ([10]; 0.5 and 1 μM): significantly increase HaCaT cell viability; Cytotoxic activity IC50, HaCaT ([10]; MTT, 24 h of incubation): Not detected; Antioxidant activity: ROS induced by H2O2 ([11]; 10 and 100 µM, 4 h pre-treatment, H2O2 1 mM, Trolox positive control): antioxidant activity comparable to Trolox"
COc1cc2c(cc1O)CN(C)C[C@H]2c1ccc(O)cc1 [cherylline],–,–,–,–,–,–,–,–,–,–,–,–,–,Effect on HIV-1 infection [15]: ineffective; EC50 [16]: 8.8 µM; EC50 [17]: 20.3 µM
